In brackets after ≈: the same amount, converted by molar mass.
Tests used:
S. aureus ATCC 29213 [1] = details: S. aureus ATCC 29213, QC organism; cited from earlier work
[2] = system: vancomycin-intermediate Staphylococcus aureus (VISA); experiment: Broth microdilution MIC (Example 12)
S. aureus ATCC 29213 [3] = experiment: Broth microdilution MIC, ATCC QC organism (Example 12); assay type: cell-based, Staphylococcus aureus; details: S. aureus ATCC 29213, QC organism
Experimental: The in vitro activity of BisEDT and two additional bismuth-thiol investigational agents (MB-2B and MB-6) was determined for isolates of Escherichia coli, Klebsiella pneumoniae, Pseudomonas aeruginosa and Acinetobacter baumannii characterized for extended-spectrum β-lactamases (ESBL) and/or carbapenem resistance. In addition, vancomycin-intermediate Staphylococcus aureus (VISA) were evaluated. The majority of the isolates tested in the current study were multidrug-resistant (MDR) as defined by resistance to at least three different antibiotic classes. Susceptibility to the investigational compounds and relevant comparators was determined by broth microdilution conducted in accordance with guidelines from the Clinical and Laboratory Standards Institute (CLSI; 2,3).

[4] = system: S. pneumoniae (pneumococci); experiment: Broth microdilution MIC (Example 11); assay type: cell-based, Streptococcus pneumoniae
[5] = system: beta-hemolytic streptococci (S. pyogenes, S. agalactiae); experiment: Broth microdilution MIC (Example 11); assay type: cell-based, Streptococcus pyogenes, Streptococcus agalactiae
[6] = system: S. pneumoniae (pneumococci); details: S. pneumoniae MMX 6837 (ATCC 49619); cited from earlier work
[7] = Staphylococcus aureus NRS 1 (hVISA)
[8] = Staphylococcus aureus NRS 24 (hVISA)

| Molecule | MIC, QC range (S. aureus ATCC 29213 [1]) | MIC [2, 7] [µg/mL] | MIC ([2]; Staphylococcus aureus NRS 2) [µg/mL] | MIC ([2]; Staphylococcus aureus NRS 3) [µg/mL] | MIC ([2]; Staphylococcus aureus NRS 4) [µg/mL] | MIC ([2]; Staphylococcus aureus NRS 13) [µg/mL] | MIC ([2]; Staphylococcus aureus NRS 18) [µg/mL] | MIC ([2]; Staphylococcus aureus NRS 22) [µg/mL] | MIC [2, 8] [µg/mL] | MIC ([2]; Staphylococcus aureus NRS 27) [µg/mL] | MIC (S. aureus ATCC 29213 [3]) [µg/mL] | also measured |
| --- | --- | --- | --- | --- | --- | --- | --- | --- | --- | --- | --- | --- |
| CC(=O)NC[C@H]1CN(c2ccc(N3CCOCC3)c(F)c2)C(=O)O1 [LZD] | (1-4) μg/mL | 1 (≈ 2.96 µM) | 4 (≈ 11.9 µM) | 1 (≈ 2.96 µM) | 1 (≈ 2.96 µM) | 2 (≈ 5.93 µM) | 1 (≈ 2.96 µM) | 1 (≈ 2.96 µM) | 2 (≈ 5.93 µM) | 2 (≈ 5.93 µM) | 4 (≈ 11.9 µM) | – |
| CN[C@H](CC(C)C)C(=O)N[C@H]1C(=O)N[C@@H](CC(N)=O)C(=O)N[C@H]2C(=O)N[C@H]3C(=O)N[C@H](C(=O)N[C@H](C(=O)O)c4cc(O)cc(O)c4-c4cc3ccc4O)[C@H](O)c3ccc(c(Cl)c3)Oc3cc2cc(c3O[C@@H]2O[C@H](CO)[C@@H](O)[C@H](O)[C@H]2O[C@H]2C[C@](C)(N)[C@H](O)[C@H](C)O2)Oc2ccc(cc2Cl)[C@H]1O [VAN] | (0.5-2) μg/mL | 4 (≈ 2.76 µM) | 0.5 (≈ 0.345 µM) | 8 (≈ 5.52 µM) | 4 (≈ 2.76 µM) | 2 (≈ 1.38 µM) | 4 (≈ 2.76 µM) | 4 (≈ 2.76 µM) | 2 (≈ 1.38 µM) | 2 (≈ 1.38 µM) | 0.5 (≈ 0.345 µM) | – |
| Penicillin | – | – | – | – | – | – | – | – | – | – | – | MIC ([4]; S. pneumoniae MMX 880, Lev^R SXT^R CC^R Ery^R Pen^R): 2 µg/mL; MIC ([4]; S. pneumoniae MMX 937, Mem^R SXT^R CC^R Ery^R Pen^R): 4 µg/mL; MIC ([4]; S. pneumoniae MMX 3959, CC^R Ery^R): 0.12 µg/mL; MIC ([4]; S. pneumoniae MMX 5440, Mem^R SXT^R CC^R Ery^R Pen^R): 4 µg/mL; MIC ([4]; S. pneumoniae MMX 5445, Mem^R SXT^R CC^R Ery^R Pen^R): 4 µg/mL; MIC ([4]; S. pneumoniae MMX 6837 (ATCC 49619), QC): 0.25 µg/mL; MIC ([4]; S. pneumoniae MMX 8133, Mem^R SXT^R CC^R Ery^R Pen^R): 4 µg/mL; MIC ([5]; S. agalactiae MMX 3741, ERY^R CC^R): 0.03 µg/mL; MIC ([5]; S. agalactiae MMX 3743, ERY^R CC^R): 0.06 µg/mL; MIC ([5]; S. agalactiae MMX 4077, ERY^R CC^R): 0.06 µg/mL; MIC ([5]; S. agalactiae MMX 4079, ERY^R CC^R Pen^R MEM^R): 2 µg/mL; MIC ([5]; S. agalactiae MMX 4086, ERY^R CC^R): 0.06 µg/mL; MIC ([5]; S. pyogenes MMX 3068, Ery^R): ≤0.008 µg/mL; MIC ([5]; S. pyogenes MMX 3820, ERY^R CLI^R): ≤0.008 µg/mL; MIC ([5]; S. pyogenes MMX 3919, ERY^R): ≤0.008 µg/mL; MIC ([5]; S. pyogenes MMX 3929, ERY^R CC^R): ≤0.008 µg/mL; MIC ([5]; S. pyogenes MMX 5091, ERY^R CC^R): ≤0.008 µg/mL; MIC, CLSI QC range [6]: (0.25-1) μg/mL |
